Key:
Nucleic Acid [1] = test: Tested in vitro for inhibition of rat liver microsome-mediated AFB1-DNA at concentration of 10 uM; type: microsomes
Nucleic Acid [2] = test: Tested in vitro for inhibition of rat liver microsome-mediated AFB1-DNA at concentration of 50 uM; type: microsomes
Nucleic Acid [3] = test: In vitro binding affinity to rat liver microsome-mediated AFB1-DNA using [3H]- AFB1 radioligand assay at concentration of 100 uM; type: microsomes
Nucleic Acid [4] = test: Tested in vitro for inhibition of rat liver microsome-mediated AFB1-DNA at concentration of 100 uM; type: microsomes
Nucleic Acid [5] = test: In vitro binding affinity to rat liver microsome-mediated AFB1-DNA using [3H]- AFB1 radioligand assay at concentration of 10 uM; type: microsomes
Nucleic Acid [6] = test: In vitro binding affinity to rat liver microsome-mediated AFB1-DNA using [3H]- AFB1 radioligand assay at concentration of 50 uM

`C=CCC1=C[C@]2(OC)[C@H](C)[C@@H](c3ccc4c(c3)OCO4)O[C@]2(OC)CC1=O` showed an inhibition (Nucleic Acid [1]) of 9%, an inhibition (Nucleic Acid [2]) of 21% and a Binding (pM 30min-1 (mg of DNA)-1) (Nucleic Acid [3]) of 108. For the same compound, the inhibition (Nucleic Acid [4]) was 23%, the Binding (pM 30min-1 (mg of DNA)-1) (Nucleic Acid [5]) was 127 and the Binding (pM 30min-1 (mg of DNA)-1) (Nucleic Acid [6]) was 110.
`COC(=O)/C=C/C=C/c1ccc2c(c1)OCO2` gave an inhibition (Nucleic Acid [1]) of 16%, an inhibition (Nucleic Acid [2]) of 42% and a Binding (pM 30min-1 (mg of DNA)-1) (Nucleic Acid [3]) of 50.7. It also gave an inhibition (Nucleic Acid [4]) of 61%, a Binding (pM 30min-1 (mg of DNA)-1) (Nucleic Acid [5]) of 110 and a Binding (pM 30min-1 (mg of DNA)-1) (Nucleic Acid [6]) of 76.
In the case of `C=CCC1=C[C@@](OC)([C@H](C)Cc2ccc3c(c2)OCO3)C(OC)=CC1=O`, the inhibition (Nucleic Acid [1]) is reported as 11%, the inhibition (Nucleic Acid [2]) is reported as 12% and the Binding (pM 30min-1 (mg of DNA)-1) (Nucleic Acid [3]) is reported as 122. The inhibition (Nucleic Acid [4]) was 13%, the Binding (pM 30min-1 (mg of DNA)-1) (Nucleic Acid [5]) was 124 and the Binding (pM 30min-1 (mg of DNA)-1) (Nucleic Acid [6]) was 123.
In the case of `c1cc2c(cc1[C@H]1OC[C@H]3[C@@H]1CO[C@H]3c1ccc3c(c1)OCO3)OCO2`, the inhibition (Nucleic Acid [1]) is reported as 21%, the inhibition (Nucleic Acid [2]) is reported as 42% and the Binding (pM 30min-1 (mg of DNA)-1) (Nucleic Acid [3]) is reported as 68.2. It also gave an inhibition (Nucleic Acid [4]) of 48%, a Binding (pM 30min-1 (mg of DNA)-1) (Nucleic Acid [5]) of 105 and a Binding (pM 30min-1 (mg of DNA)-1) (Nucleic Acid [6]) of 76.5.
With `O=C(/C=C/C=C/c1ccc2c(c1)OCO2)N1CCCCC1` the inhibition (Nucleic Acid [1]) was 27%, the inhibition (Nucleic Acid [2]) was 47% and the Binding (pM 30min-1 (mg of DNA)-1) (Nucleic Acid [3]) was 56.6. For the same compound, the inhibition (Nucleic Acid [4]) was 57%, the Binding (pM 30min-1 (mg of DNA)-1) (Nucleic Acid [5]) was 96.6 and the Binding (pM 30min-1 (mg of DNA)-1) (Nucleic Acid [6]) was 70.
For `C=CCC1=C[C@]2(OC)[C@H](C)[C@@H](c3ccc4c(c3)OCO4)O[C@]2(OC)C[C@@H]1O`, the inhibition (Nucleic Acid [1]) was 31%, the inhibition (Nucleic Acid [2]) was 64% and the Binding (pM 30min-1 (mg of DNA)-1) (Nucleic Acid [3]) was 24.8. For the same compound, the inhibition (Nucleic Acid [4]) was 81%, the Binding (pM 30min-1 (mg of DNA)-1) (Nucleic Acid [5]) was 91 and the Binding (pM 30min-1 (mg of DNA)-1) (Nucleic Acid [6]) was 48.
